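96-well plates; 48 h exposure; 5 concentrations. Endpoints by linear interpolation between flanking doses. Not reached: highest tested concentration assigned. Abbreviation: GI50, concentration required for 50% inhibition of growth.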 Active and inactive are the calls of the source. No stated cut-off is given here; in the data, active = GI50 up to about 1.1 µM and inactive = higher.
What was measured:
Assay in all cases: growth of human tumour cells (NCI), 48 h
HCT-116 = system: HCT-116
A549 = system: A549
LOX IMVI = system: LOX IMVI
UACC-257 = system: UACC-257
ACHN = system: ACHN
CCRF-CEM = system: CCRF-CEM
SW-620 = system: SW-620
HCT-15 = system: HCT-15
SK-MEL-5 = system: SK-MEL-5
K562 = system: K562
SF-268 = system: SF-268
RPMI-8226 = system: RPMI-8226
U-251 = system: U-251
OVCAR-4 = system: OVCAR-4
Malme-3M = system: Malme-3M
NCI-H522 = system: NCI-H522
KM12 = system: KM12
SF-295 = system: SF-295
A498 = system: A498

Structure (SMILES)	GI50 (HCT-116)	GI50 (A549)	GI50 (LOX IMVI)	GI50 (UACC-257)	GI50 (ACHN)	GI50 (CCRF-CEM)	GI50 (SW-620)	GI50 (HCT-15) [µM]	GI50 (SK-MEL-5)	GI50 (K562)	GI50 (SF-268)	GI50 (RPMI-8226)	GI50 (U-251)	GI50 (OVCAR-4)	GI50 (Malme-3M)	GI50 (NCI-H522)	GI50 (KM12)	GI50 (SF-295)	GI50 (A498)
CCOC(=O)C(NC(=O)CC)(Nc1cc(C)on1)C(F)(F)F (stereo not given)	> 100 µM (inactive)	> 100 µM (inactive)	> 100 µM (inactive)	> 100 µM (inactive)	> 100 µM (inactive)	> 100 µM (inactive)	> 100 µM (inactive)	> 100	> 100 µM (inactive)	> 100 µM (inactive)	> 100 µM (inactive)	> 100 µM (inactive)	> 100 µM (inactive)						
COc1ccc(-c2cc(O)c3cc(OC)ccc3n2)cc1	> 100 µM (inactive)	> 100 µM (inactive)	> 100 µM (inactive)	> 100 µM (inactive)	> 100 µM (inactive)	> 100 µM (inactive)	> 100 µM (inactive)		> 100 µM (inactive)	> 100 µM (inactive)	36.6 µM (inactive)	> 100 µM (inactive)		> 100 µM (inactive)	> 100 µM (inactive)	> 100 µM (inactive)	> 100 µM (inactive)	> 100 µM (inactive)	
O=C1c2ccccc2C(=O)c2[nH]cnc21	45.4 µM (inactive)	55.3 µM (inactive)		23 µM (inactive)	66.7 µM (inactive)	49.9 µM (inactive)		48.5	18.1 µM (inactive)	78.7 µM (inactive)	93.1 µM (inactive)		73.8 µM (inactive)	76.6 µM (inactive)	20 µM (inactive)	34 µM (inactive)	53.8 µM (inactive)	34.3 µM (inactive)	> 100 µM (inactive)
Nc1nc(-c2ccco2)cc(-c2ccc(CO)o2)n1	> 100 µM (inactive)	> 100 µM (inactive)	> 100 µM (inactive)		> 100 µM (inactive)	76.4 µM (inactive)	> 100 µM (inactive)	> 100	> 100 µM (inactive)	> 100 µM (inactive)	> 100 µM (inactive)	41.4 µM (inactive)		> 100 µM (inactive)	> 100 µM (inactive)	85.5 µM (inactive)	> 100 µM (inactive)	> 100 µM (inactive)	
CCOC(=O)C1Cc2[nH]c3ccccc3c2C(C)C1C (stereo not given)	16.3 µM (inactive)	14.1 µM (inactive)	14.8 µM (inactive)	17.6 µM (inactive)	13.7 µM (inactive)	19.7 µM (inactive)	17.3 µM (inactive)	16.7	14 µM (inactive)	23.5 µM (inactive)	19.5 µM (inactive)		18.5 µM (inactive)	16 µM (inactive)	16.9 µM (inactive)	12.2 µM (inactive)	17 µM (inactive)	19.4 µM (inactive)	17.4 µM (inactive)
CCOC(=O)c1ccc(/N=N/c2cc(C(=O)OCC)ccc2O)cc1	> 100 µM (inactive)	> 100 µM (inactive)	> 100 µM (inactive)		84.3 µM (inactive)	> 100 µM (inactive)	> 100 µM (inactive)	> 100	> 100 µM (inactive)	> 100 µM (inactive)	> 100 µM (inactive)	> 100 µM (inactive)	> 100 µM (inactive)			41.9 µM (inactive)			68.9 µM (inactive)
O=C1C[C@@H]2[C@@H](c3ccccc3)[C@@H]3C(=O)c4ccccc4NC(=O)[C@H]3[C@]2(O)c2ccccc2N1	> 100 µM (inactive)	> 100 µM (inactive)	> 100 µM (inactive)		> 100 µM (inactive)	> 100 µM (inactive)	> 100 µM (inactive)	> 100	> 100 µM (inactive)	> 100 µM (inactive)	> 100 µM (inactive)	> 100 µM (inactive)	> 100 µM (inactive)	> 100 µM (inactive)	> 100 µM (inactive)	> 100 µM (inactive)	> 100 µM (inactive)	> 100 µM (inactive)	
Cc1cc(NS(=O)(=O)c2ccc(Nc3c4ccccc4nc4c(C(=O)N5CCN(CCO)CC5)cccc34)cc2)no1	> 100 µM (inactive)	> 100 µM (inactive)	39.5 µM (inactive)	> 100 µM (inactive)	> 100 µM (inactive)	43.9 µM (inactive)	> 100 µM (inactive)	> 100	> 100 µM (inactive)	57.8 µM (inactive)	> 100 µM (inactive)		> 100 µM (inactive)	> 100 µM (inactive)	> 100 µM (inactive)	79.4 µM (inactive)	> 100 µM (inactive)	> 100 µM (inactive)	> 100 µM (inactive)
CCOC(=O)C/C(N)=C(\C#N)C(=O)OCC	> 100 µM (inactive)	> 100 µM (inactive)	> 100 µM (inactive)		> 100 µM (inactive)	> 100 µM (inactive)	> 100 µM (inactive)	> 100	> 100 µM (inactive)	> 100 µM (inactive)	> 100 µM (inactive)	> 100 µM (inactive)	> 100 µM (inactive)		> 100 µM (inactive)	> 100 µM (inactive)	> 100 µM (inactive)	> 100 µM (inactive)	> 100 µM (inactive)
CCCn1c(SCCSc2c3ccccc3c(-c3nc(F)nc(F)n3)n2CCC)c2ccccc2c1-c1nc(F)nc(F)n1	> 100 µM (inactive)	> 100 µM (inactive)		> 100 µM (inactive)	82.6 µM (inactive)	46.9 µM (inactive)	13.8 µM (inactive)	> 100		> 100 µM (inactive)	> 100 µM (inactive)	27.3 µM (inactive)	> 100 µM (inactive)	> 100 µM (inactive)	> 100 µM (inactive)	> 100 µM (inactive)	> 100 µM (inactive)	> 100 µM (inactive)	
NCCN1C(=O)C2C3c4ccccc4C(c4ccccc43)C2C1=O (stereo not given)	> 100 µM (inactive)	> 100 µM (inactive)		> 100 µM (inactive)	> 100 µM (inactive)	> 100 µM (inactive)	> 100 µM (inactive)	> 100	> 100 µM (inactive)	> 100 µM (inactive)	> 100 µM (inactive)	> 100 µM (inactive)	> 100 µM (inactive)	> 100 µM (inactive)	> 100 µM (inactive)	> 100 µM (inactive)	> 100 µM (inactive)	> 100 µM (inactive)	> 100 µM (inactive)
CS(=O)(=O)c1nc(N)nc2nc[nH]c12	> 100 µM (inactive)	> 100 µM (inactive)	> 100 µM (inactive)	> 100 µM (inactive)	> 100 µM (inactive)	> 100 µM (inactive)	> 100 µM (inactive)	> 100	> 100 µM (inactive)	> 100 µM (inactive)	> 100 µM (inactive)	> 100 µM (inactive)	> 100 µM (inactive)	> 100 µM (inactive)		74.8 µM (inactive)	> 100 µM (inactive)	> 100 µM (inactive)	> 100 µM (inactive)
CC(=O)CC(=O)Nc1ccccc1[N+](=O)[O-]	> 100 µM (inactive)	> 100 µM (inactive)		> 100 µM (inactive)	> 100 µM (inactive)	> 100 µM (inactive)	> 100 µM (inactive)	> 100	> 100 µM (inactive)	> 100 µM (inactive)	> 100 µM (inactive)	> 100 µM (inactive)	> 100 µM (inactive)	> 100 µM (inactive)	> 100 µM (inactive)	> 100 µM (inactive)	> 100 µM (inactive)	> 100 µM (inactive)	> 100 µM (inactive)
CO[C@]12CCC(=O)N1C=Cc1c2[nH]c2ccccc12	> 100 µM (inactive)	> 100 µM (inactive)	> 100 µM (inactive)	> 100 µM (inactive)	> 100 µM (inactive)	> 100 µM (inactive)	> 100 µM (inactive)	> 100	> 100 µM (inactive)	> 100 µM (inactive)	> 100 µM (inactive)	> 100 µM (inactive)		> 100 µM (inactive)	> 100 µM (inactive)			> 100 µM (inactive)	> 100 µM (inactive)
Cc1nc2c(o1)/C(=N\c1ccccc1)c1nc(C)oc1/C2=N/c1ccccc1	19.4 µM (inactive)	24.8 µM (inactive)	28.2 µM (inactive)	29.6 µM (inactive)	17.9 µM (inactive)	61.1 µM (inactive)	34.4 µM (inactive)	23.4	1.06 µM (active)	33 µM (inactive)	23.7 µM (inactive)	29.6 µM (inactive)	17.7 µM (inactive)		19.4 µM (inactive)	21.7 µM (inactive)		23.4 µM (inactive)	1.29 µM (inactive)
N=C(N)c1ccc(/N=N/c2c(O)ccc3cc(O)ccc23)cc1	> 100 µM (inactive)	> 100 µM (inactive)		> 100 µM (inactive)	> 100 µM (inactive)	> 100 µM (inactive)	> 100 µM (inactive)	> 100	> 100 µM (inactive)	> 100 µM (inactive)	> 100 µM (inactive)	> 100 µM (inactive)	> 100 µM (inactive)	> 100 µM (inactive)	56.2 µM (inactive)	> 100 µM (inactive)	> 100 µM (inactive)	> 100 µM (inactive)	
[N-]=[N+]=NC(CCl)c1cn([C@H]2C[C@H](O)[C@@H](CO)O2)c(=O)[nH]c1=O (stereo not given in full)	> 100 µM (inactive)	> 100 µM (inactive)	> 100 µM (inactive)		> 100 µM (inactive)	> 100 µM (inactive)	> 100 µM (inactive)	> 100	> 100 µM (inactive)	> 100 µM (inactive)		> 100 µM (inactive)	> 100 µM (inactive)		> 100 µM (inactive)	> 100 µM (inactive)	> 100 µM (inactive)	> 100 µM (inactive)	

From ChEMBL document CHEMBL1201862, “PubChem BioAssay data set” (2004)
